Source: patent US5443986A, “Enzymatic analysis using substrates that yield fluorescent precipitates” (Molecular Probes, Inc., priority 1993, dated 1995)

Legend:
[1] = tested on: epidermal growth factor (EGF) receptors; test: Detection of a growth factor receptor in A431 cells; type: cell-based, human; details: fluorescence microscope; substrate 0.1 mM 15 minutes, or 50 ng/mL direct conjugate
Method: 1 ). Cells. Dish-cultured A431 cells (American Type Culture Collection, Rockville, Md.) are digested with trypsin and transferred to glass cover-slips. The cells are subcultured and stabilized for 24 to 48 hours before use.
2). Staining. The slips are transferred into a staining dish, washed with PBS, rinsed in a 0.5% formaldehyde PBS solution for 15 minutes at room temperature, washed with PBS, then incubated in 50 ng/mL biotinylated epidermal growth factor (biotin-EGF; Molecular Probes, Inc., Eugene, Oreg.) in PBS solution for 30 minutes at room temperature. The slips are washed with PBS buffer, then incubated with 1 μg/mL streptavidin alkaline phosphatase (Molecular Probes, Inc.) in a reaction buffer (0.1M TRIS pH 7.8 containing 0.15M NaCl, 50 mM MgCl2 and 0.1 mM ZnCl2) for 30 minutes at room temperature. The slips are washed with the reaction buffer, then incubated with 0.1 mM of a precipitating alkaline phosphatase substrate in the reaction buffer for 15 minutes at room temperature. The substrate solution is filtered through a 0.2 μM filter (Millipore, Bedford, Mass.) before use.
3). Detection. The slips are washed with PBS then examined under a Zeiss fluorescence microscope equipped with suitable filters (typically excitation at about 360 nm and emission past 480 nm). […] Alternatively the fluorescent labeled cells can be detected and the intensity quantitated by flow cytometry.

β-galactosidase [2] = molecular target: T1, β-galactosidase (Escherichia coli, UniProt P00722); test: Labeling of lacZ positive fibroblast cells with a β-galactosidase substrate; type: cell-based
T1 construct: host or cells: CRE BAG 2 cells (NIH/3T3 cells transformed with a retrovirus containing lacZ)
T1 sequence (P00722 whole entry): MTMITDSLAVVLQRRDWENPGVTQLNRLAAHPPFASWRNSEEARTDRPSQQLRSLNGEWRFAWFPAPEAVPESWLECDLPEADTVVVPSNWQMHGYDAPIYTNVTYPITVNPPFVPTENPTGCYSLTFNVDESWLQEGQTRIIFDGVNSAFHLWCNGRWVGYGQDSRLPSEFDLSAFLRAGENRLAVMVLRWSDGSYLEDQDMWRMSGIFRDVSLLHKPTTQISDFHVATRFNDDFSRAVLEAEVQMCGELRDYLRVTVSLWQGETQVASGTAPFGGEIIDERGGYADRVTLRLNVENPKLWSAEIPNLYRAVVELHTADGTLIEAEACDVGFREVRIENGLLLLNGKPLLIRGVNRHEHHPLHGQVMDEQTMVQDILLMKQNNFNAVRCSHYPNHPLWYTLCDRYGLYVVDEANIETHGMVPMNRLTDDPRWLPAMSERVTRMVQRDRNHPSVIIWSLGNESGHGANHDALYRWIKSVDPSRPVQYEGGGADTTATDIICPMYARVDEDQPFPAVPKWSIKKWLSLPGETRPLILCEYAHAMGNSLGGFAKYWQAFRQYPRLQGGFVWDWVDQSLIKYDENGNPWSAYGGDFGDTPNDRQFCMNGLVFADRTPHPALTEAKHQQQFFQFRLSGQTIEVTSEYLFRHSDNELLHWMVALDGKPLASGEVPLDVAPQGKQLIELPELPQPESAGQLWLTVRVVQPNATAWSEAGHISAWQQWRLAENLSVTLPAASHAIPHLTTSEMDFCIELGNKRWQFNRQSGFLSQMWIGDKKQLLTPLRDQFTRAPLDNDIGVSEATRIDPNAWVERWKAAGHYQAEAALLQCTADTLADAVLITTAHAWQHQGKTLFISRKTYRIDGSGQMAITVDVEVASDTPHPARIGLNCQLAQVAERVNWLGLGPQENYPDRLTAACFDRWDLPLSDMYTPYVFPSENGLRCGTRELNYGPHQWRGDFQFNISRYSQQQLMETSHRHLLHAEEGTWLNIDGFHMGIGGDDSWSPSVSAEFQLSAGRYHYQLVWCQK
Method: (§1) 1.1 Cell Lines: NIH/3T3 cells (lacZ negative) and CRE BAG 2 cells (3T3 cells transformed with a retrovirus containing the lacZ gene) are employed for cellular assays. Both cell lines can be obtained from American Type Culture Collection Co., Rockville, Md. The cells are grown in a humidified atmosphere of 5% CO2 in Dulbecco's modified Eagle's medium supplemented with 10% calf serum, 50 μg/mL gentamicin, 300 μg/mL L-glutamine and 10 mM HEPES pH 7.4.
1.2 Stock Solution of the Labeling Reagent: The β-galactosidase substrate 1h is dissolved in DMSO to get a 10 mM stock solution.
(§2) 1.3 Working Medium: 100 μL of the dye stock solution is added to 10 mL of fresh culture medium to prepare a "working medium" containing 100 μM of the substrate 1h. This medium is then filter-sterilized by passing through an Acrodisc™ filter (0.45μ pore size).
1.4 Staining and Examination of Cells: Cells grown on coverslips are transferred to the working medium and incubated at 37° C. under normal culture conditions. Cells are examined at the desired time for their fluorescence under a Zeiss microscope equipped with a Hoechst filter set (typically excitation at about 360 nm and emission past 480 nm). […] After 6 hours, the fluorescence intensity of stained CRE BAG 2 cells reaches its highest level.

β-galactosidase [3] = test: Labeling of lacZ positive yeast cells; type: cell-based, Yeast strain EG 123; details: 200 μM staining solution mixed with equal volume of cells, after 300 μM chloroquine
Method: 2.1 Yeast Strain: Yeast strain EG 123 is transformed with plasmid pLGΔ-312S, which carries the yeast CYC1 promotor region and initiation codon fused in frame with the lacZ gene. The cells are grown in a synthetic medium selecting for plasmid maintenance to a density of about 10^7 cells per mL. Cells are collected by centrifugation and resuspended in Z buffer to obtain a cell suspension. Z buffer contains 0.2% β-mercaptoethanol which improves the permeability of both the yeast cell wall and the plasma membrane. Nontransformed yeast cells are used as the control.
2.2 Staining Solution: The galactosidase substrate (1h) is first dissolved in DMSO to get 10 mM stock solution. This solution is diluted 1:50 with distilled water to obtain a 200 μM staining solution.
2.3 Staining and Examination of Cells: To inhibit endogenous vacuolar galactosidase activity, yeast cells are first preincubated with 300 μM chloroquine for 20 minutes at room temperature, then mixed with an equal volume of the substrate-containing staining solution. Most of the lacZ positive cells become fluorescent within 15 minutes. A crystalline precipitate can be observed in the cells, while the lacZ negative cells remain unstained for at least 2 hours.

[4] = tested on: NIH/3T3 cells and CRE BAG 2 cells; test: Cytotoxicity and cellular retention in fibroblast cells; type: cell-based
Method: as §1, §2

| Molecule | fluorescence of stained fixed A431 cells [1] | time at which fluorescence intensity of stained CRE BAG 2 cells reaches its highest level (β-galactosidase [2]; 100 μM working medium) [h] | fluorescent staining of 3T3 cells (lacZ negative) (β-galactosidase [2]; 100 μM, 60 minutes, 37° C.) | fluorescent staining of lacZ positive CRE BAG 2 cells (β-galactosidase [2]; 100 μM, 60 minutes, 37° C.) | time for which lacZ negative yeast cells remain unstained (β-galactosidase [3]) | time within which most lacZ positive yeast cells become fluorescent (β-galactosidase [3]) [min] | cytotoxicity [4] | cell morphology and population doubling time ([4]; 100 μM working medium, 24 hours) |
| --- | --- | --- | --- | --- | --- | --- | --- | --- |
| fluorescein EGF: direct fluorescent conjugate of epidermal growth factor (NSDSECPLSHDGYCLHDGVCMYIEALDKYACNCVVGYIGERCQYRDLKWWELR; Epidermal growth factor fluorescein label; UniProt P01133 971-1023, looked up) | extremely low visibility and very low photostability |  |  |  |  |  |  |  |
| O=c1[nH]c(-c2ccccc2O[C@@H]2O[C@H](CO)[C@H](O)[C@H](O)[C@H]2O)nc2ccccc12 [1h] |  | 6 | not in the 3T3 cells | fluorescent spots can be observed in the cytoplasmic area | at least 2 hours | ≤ 15 | no cytotoxicity | look morphologically normal and have the same population doubling time as the control |
